Tested on: Rattus norvegicus
[1] = chronic, duration: 2 years, oral, M/F, Sprague-Dawley, Hepatic: Increased serum ALT and AST at ?[…] / hepatocellular hypertrophy at 15 mg/kg/day / hepatocellular necrosis at 15 mg/kg/day only …
[2] = chronic, duration: 2 years, oral, M, Sprague-Dawley, Reproductive: Vascular mineralization in the testes
[3] = developmental, duration: 15 hours, inhalation, F, Sprague-Dawley, Developmental: 10% decreased neonatal body weight on PND 1
[4] = reproduction developmental, duration: 90 days, oral, M/F, Sprague-Dawley, Body Weight: >11% reduced body weight
[5] = reproduction developmental, duration: 90 days, oral, M/F, Sprague-Dawley, Hepatic: Increased absolute and relative liver weight in P-generation (36%) and F1-generation (30%) males / hepatocellular hypertrophy and …
[6] = short-term, duration: 2 weeks, inhalation, M, CD, Body Weight: 7% lower body weight on exposure day 5
[7] = short-term, duration: 14 days, oral, M, Body Weight: 24% decrease in overall body weight gain
[8] = short-term, duration: 14 days, oral, M, CD, Body Weight: 14% lower final body weight
[9] = short-term, duration: 14 days, oral, M, CD, Body Weight: 14% reduction in final body weight
[10] = short-term, duration: 14 days, oral, M, CD, Reproductive: 2-fold increase in serum estradiol
[11] = short-term, duration: 14 days, oral, M, CD, Reproductive: 63% increase in serum estradiol
[12] = short-term, duration: 28 days, oral, M, CD, Body Weight: 10% decrease in final body weight
[13] = short-term, duration: 28 days, oral, M, CD, Hepatic: 34% decrease in serum triglyceride levels, minimal hepatocellular hypertrophy at ?[…] / minimal focal necrosis at 29 mg/kg/day
[14] = subchronic, duration: 90 days, oral, M, CD, Body Weight: 33% reduction in final mean body weight

O=C([O-])C(F)(F)C(F)(F)C(F)(F)C(F)(F)C(F)(F)C(F)(F)C(F)(F)F.[NH4+] [Ammonium perfluorooctanoate]
NOAEL (chronic, duration: 2 years, oral, F, Sprague-Dawley, Body Weight: […] lower terminal body weight): 1.5 mg/kg-day
NOAEL (chronic, duration: 2 years, oral, M/F, Sprague-Dawley): 15 mg/kg-day
LOAEL [1]: 15 mg/kg-day
NOAEL [1]: 1.5 mg/kg-day
LOAEL (chronic, duration: 2 years, oral, M/F, Sprague-Dawley, Other Cancer: CEL: testicular Leydig cell adenomas): 15 mg/kg-day
LOAEL (chronic, duration: 2 years, oral, M, CD, Body Weight: >10% reduction in weight gain most of the study + Other: Increased incidence of acinar cell + Reproductive: Increased incidence…): 13.6 mg/kg-day
LOAEL (chronic, duration: 2 years, oral, M, CD, Cancer: CEL: testicular Leydig cell adenomas and pancreatic acinar cell adenomas): 13.6 mg/kg-day
NOAEL (chronic, duration: 2 years, oral, M, CD, Hepatic: Increased relative liver weight): 13.6 mg/kg-day
LOAEL (chronic, duration: 2 years, oral, M, Sprague-Dawley, Other Noncancer: Inflammation of the salivary gland): 1.5 mg/kg-day
LOAEL [2]: 15 mg/kg-day
NOAEL [2]: 1.5 mg/kg-day
LOAEL [3]: 25 mg/m3
NOAEL [3]: 10 mg/m3
NOAEL (developmental, duration: 10 days, oral, F, Sprague-Dawley, Developmental: No alterations in fetal body weight or teratology): 100 mg/kg-day
LOAEL (developmental, duration: 90 days, oral, M/F, Sprague-Dawley, Developmental: Increased number of dead pups on PNDs 6-8): 30 mg/kg-day
NOAEL (developmental, duration: 90 days, oral, M/F, Sprague-Dawley, Developmental: Increased number of dead pups on PNDs 6-8 + Endocrine: Vacuolation of zona glomerulosa of adrenal gland): 10 mg/kg-day
LOAEL (reproduction developmental, duration: 10 days, oral, F, Sprague-Dawley, Body Weight: 33% reduced maternal body weight gain): 100 mg/kg-day
LOAEL [4]: 10 mg/kg-day
NOAEL [4]: 3 mg/kg-day
LOAEL (reproduction developmental, duration: 90 days, oral, M/F, Sprague-Dawley, Endocrine: Vacuolation of zona glomerulosa of adrenal gland): 30 mg/kg-day
LOAEL [5]: 3 mg/kg-day
NOAEL [5]: 1 mg/kg-day
NOAEL (reproduction developmental, duration: 90 days, oral, M/F, Sprague-Dawley, Reproductive: No alteration in reproductive performance in P0 or F1 generation): 30 mg/kg-day
NOAEL (short-term, duration: 2 weeks, dermal, M, CD): 2000 mg/kg-day
LOAEL (short-term, duration: 2 weeks, dermal, M, CD, Body Weight: 14% weight loss): 200 mg/kg-day
NOAEL (short-term, duration: 2 weeks, dermal, M, CD, Body Weight: 14% weight loss + Dermal: Skin irritation / acute necrotizing dermatitis): 20 mg/kg-day
LOAEL (short-term, duration: 2 weeks, dermal, M, CD, Hepatic: Foci of coagulative necrosis): 20 mg/kg-day
LOAEL [6]: 84 mg/m3
NOAEL [6]: 7.6 mg/m3
NOAEL (short-term, duration: 2 weeks, inhalation, M, CD, Hepatic: Increased absolute and relative liver weight / hepatocellular hypertrophy at 7.6 mg/m3 + Neurological: No histological alterations…): 84 mg/m3
LOAEL (short-term, duration: 7 days, oral, M, Sprague-Dawley, Body Weight: 17% weight loss): 50 mg/kg-day
NOAEL (short-term, duration: 7 days, oral, M, Sprague-Dawley, Hepatic: 2-fold increase in relative and absolute liver weight): 50 mg/kg-day
NOAEL (short-term, duration: 7 days, oral, M, Sprague-Dawley, Hepatic: Increased liver weight, decreased serum cholesterol, triglyceride, hepatocellular hypertrophy at ?18 mg/kg/day): 23 mg/kg-day
NOAEL (short-term, duration: 7 days, oral, M, Wistar, Hepatic: 66% increase in absolute liver weight): 16 mg/kg-day
LOAEL [7]: 3 mg/kg-day
NOAEL [7]: 1 mg/kg-day
LOAEL [8]: 20 mg/kg-day
NOAEL [8]: 2 mg/kg-day
LOAEL [9]: 25 mg/kg-day
NOAEL [9]: 10 mg/kg-day
NOAEL (short-term, duration: 14 days, oral, M, CD, Hepatic: 34% increase in absolute and relative liver we): 40 mg/kg-day
NOAEL (short-term, duration: 14 days, oral, M, CD, Hepatic: 46% increase in relative liver weight at ?10 mg/kg/day): 50 mg/kg-day
LOAEL [10]: 2 mg/kg-day
NOAEL [10]: 0.2 mg/kg-day
LOAEL [11]: 10 mg/kg-day
NOAEL [11]: 1 mg/kg-day
LOAEL (short-term, duration: 14 days, oral, M, CD, Reproductive: 184% increase in serum estradiol): 25 mg/kg-day
NOAEL (short-term, duration: 14 days, oral, M, Hepatic: Decreased serum cholesterol levels at ?0.3 mg/kg/day): 30 mg/kg-day
NOAEL (short-term, duration: 14 days, oral, M, Sprague-Dawley, Hepatic: 2-fold increased mean relative liver weight at 50 mg/kg/day + Immunotoxicological: No alterations in spleen weight or splenocyte …): 50 mg/kg-day
LOAEL (short-term, duration: 28 days, oral, F, albino, Death: before end of 1st week of study): 1130 mg/kg-day
NOAEL (short-term, duration: 28 days, oral, M, CD): 29 mg/kg-day
NOAEL (short-term, duration: 28 days, oral, M, CD, Body Weight: 30 mg/kg/day: 11% reduction in final body weight / 100 mg/kg/day: 33% reduction in final body weight): 10 mg/kg-day
LOAEL [12]: 9.6 mg/kg-day
NOAEL [12]: 0.96 mg/kg-day
LOAEL [13]: 29 mg/kg-day
NOAEL [13]: 0.29 mg/kg-day
NOAEL (short-term, duration: 28 days, oral, M, CD, Hepatic: Hepatocyte hypertrophy): 3 mg/kg-day
LOAEL (short-term, duration: 28 days, oral, M, Sprague-Dawley, Hepatic: Increased liver weight (43% on day 29), decreased serum cholesterol (39% on day 29) and triglyceride (73% on day 29), …): 18 mg/kg-day
LOAEL (short-term, duration: 28 days, oral, M, albino, Death: 5/5 males and 5/5 females died): 1000 mg/kg-day
NOAEL (subchronic, duration: 13 weeks, oral, M, CD, Hepatic: Minimal to moderate hepatocellular hypertrophy at ?0.64 mg/kg/day + Neurological: No histological alterations + Reproductive: No …): 6.5 mg/kg-day
NOAEL (subchronic, duration: 90 days, oral, F, CD): 100 mg/kg-day
NOAEL (subchronic, duration: 90 days, oral, F, CD, Neurological: No histological alterations): 110 mg/kg-day
LOAEL [14]: 100 mg/kg-day
NOAEL [14]: 30 mg/kg-day
NOAEL (subchronic, duration: 90 days, oral, M, CD, Hepatic: Hepatocyte hypertrophy / 50% increase in absolute liver weight + Reproductive: No histological alterations): 100 mg/kg-day

Reference: EPA's ToxValDB 9.5
